Legend:
[1] = Lipophilicity by RP-HPLC (methanol/water, RP-18 column); format: physicochemical; conditions: for −S (slope of the regression curve), RP–HPLC / log kw: methanol/water, RP-HPLC; for log kw: extrapolated to zero methanol concentration, 25 °C; for Φ0 (chromatographic lipophilicity parameter), RP–HPLC: Φ0 = −log kw/S
Procedure: The HPLC experiments were performed on the Shimadzu HPLC system (Kyoto, Japan) equipped with solvent delivery pump LC-20AD, UV–VIS detector model SPD-20A, degasser model DGU-20A5, a column oven model CTO-20A, and a column Superspher® 100 RP-18 (4 μm), Merck (Darmstadt, Germany). Methanol and water for HPLC from POCH (Gliwice, Poland) were used as solvents. Mobile phase methanol/water varied in the various ratios. Methanol concentration expressed as volume fraction v/v, varied in the range from 0.55 to 0.95 in constant steps of 0.05. Compounds 1–28 were dissolved in methanol (1 mg/mL). The mobile phase flow rate was 0.7 mL/min. The injection volume was 0.02 mL. All analyzes were performed at 25 °C. Experiments were performed in triplicate with similar results.
The retention coefficient k was calculated from the following relationship:(1) k=tr/tm−1, where tr [min]—retention time, and tm [min]—time for dead volume (measured by use of uracil).
To determine the linear relationship between the values of the log k parameter and the concentration of methanol in the mobile phase, the Soczewiński–Wachtmeister equation was used:(2) logk= log kw+SΦ, where log kw —value extrapolated to zero methanol concentration, Φ —methanol concentration in the mobile phase (volume fraction v/v), and S—the slope of the regression curve.
The parameter Φ0 was calculated from the equation:(3) Φ0=−log kw/S.

[2] = Lipophilicity by RP-TLC (methanol/water, HPTLC 60RP-18 plates); format: physicochemical; conditions: for −S (slope of the regression curve), RP–TLC / RM0: methanol/water, RP-TLC; for RM0: extrapolated to zero methanol concentration, 22 °C; for Φ0 (chromatographic lipophilicity parameter), RP–TLC: Φ0 = −RM0/S
Procedure: Specifically, 10 × 10 cm plates with silica gel HPTLC 60RP-18 WF254s (Merck, Darmstadt, Niemcy) were used as the stationary phase. Methanol and water for HPLC from POCH (Gliwice, Poland) were used as solvents. Methanol concentration expressed as volume fraction v/v, varied in the range from 0.5 to 0.7 in constant steps of 0.05. Test compounds were dissolved in methanol (2 mg/mL), and then samples (0.01 mL) of each were applied to plates, which were developed in a horizontal DS chamber (Chromdes, Lublin, Poland).
The developing distance was 8 cm. Developed plates were air-dried and observed under 254 nm ultraviolet lamp. All analyzes were performed at 22 °C. Experiments were performed in triplicate with similar results.
For all the compounds, the relative lipophilicity RM values for five methanol–water mobile phases were calculated by the use of the following formula:(4) RM=log[1−RF/RF].
The linear relationship between the RM values and the concentration of methanol in the mobile phase to determine the lipophilicity parameters RM0 is described by the following equation:(5) RM=RM0+SΦ, where Φ —methanol concentration in the mobile phase (volume fraction v/v), and S—the slope of the regression curve.
The quantity Φ0 was calculated from the following equation:(6) Φ0=−RM0/S.

| Structure (SMILES) | −S (slope of the regression curve), RP–HPLC [1] | log kw [1] | Φ0 (chromatographic lipophilicity parameter), RP–HPLC [1] | −S (slope of the regression curve), RP–TLC [2] | RM0 [2] | Φ0 (chromatographic lipophilicity parameter), RP–TLC [2] |
| --- | --- | --- | --- | --- | --- | --- |
| CC(C)(C)NC1=NC(=O)C2(CCC2)S1 [Compound 18] | 3.297 | 2.15 | 0.652 | 2.476 | 1.69 | 0.683 |
| CC(C)NC1=NC(=O)C(C)S1 (centres unmarked) [Compound 1, 5-methyl-2-isopropylaminothiazol-4(5H)-one] | 2.975 | 1.35 | 0.454 | 1.280 | 0.94 | 0.734 |
| O=C1N=C(NC23CC4CC(CC(C4)C2)C3)SC12CCC2 [Compound 27] | 4.383 | 3.66 | 0.835 | 3.025 | 2.56 | 0.847 |
| CC1SC(NC23CC4CC(CC(C4)C2)C3)=NC1=O (centres unmarked) [Compound 19] | 4.099 | 3.22 | 0.786 | 3.148 | 2.55 | 0.810 |
| CC(C)(C)NC1=NC(=O)C(c2ccccc2)S1 (centres unmarked) [Compound 15] | 4.449 | 3.25 | 0.730 | 4.293 | 3.17 | 0.739 |
| CCCC1SC(NC(C)(C)C)=NC1=O (centres unmarked) [Compound 12] | 3.606 | 2.46 | 0.682 | 2.426 | 1.71 | 0.703 |
| CCC1SC(NC(C)(C)C)=NC1=O (centres unmarked) [Compound 11] | 3.073 | 1.88 | 0.612 | 2.478 | 1.59 | 0.643 |
| CC(C)NC1=NC(=O)C2(CCCCC2)S1 [Compound 8] | 4.170 | 2.97 | 0.712 | 2.877 | 2.04 | 0.709 |
| CC(C)NC1=NC(=O)C(C(C)C)S1 (centres unmarked) [Compound 4] | 3.603 | 2.28 | 0.633 | 2.127 | 1.41 | 0.663 |
| CCC1SC(NC(C)C)=NC1=O (centres unmarked) [Compound 2] | 3.254 | 1.86 | 0.571 | 2.075 | 1.39 | 0.668 |
| CC(C)C1SC(NC23CC4CC(CC(C4)C2)C3)=NC1=O (centres unmarked) [Compound 22] | 4.744 | 3.94 | 0.830 | 3.175 | 2.67 | – |
| CC(C)(C)NC1=NC(=O)C(c2ccc(Br)cc2)S1 (centres unmarked) [Compound 16] | 4.537 | 3.38 | 0.745 | 4.131 | 3.20 | 0.774 |
| O=C1N=C(NC23CC4CC(CC(C4)C2)C3)SC1c1ccccc1 (centres unmarked) [Compound 24, 2-(adamantan-1-ylamino)-5-phenylthiazol-4(5H)-one] | 5.024 | 4.13 | 0.822 | 4.203 | 3.31 | 0.787 |
| CCCC1SC(NC(C)C)=NC1=O (centres unmarked) [Compound 3] | 3.494 | 2.28 | 0.652 | 2.422 | 1.63 | 0.673 |
| CC(C)(C)NC1=NC(=O)C(C)(C)S1 [Compound 14] | 3.320 | 2.02 | 0.608 | 1.826 | 1.19 | 0.652 |
| CC1(C)SC(NC23CC4CC(CC(C4)C2)C3)=NC1=O [Compound 23] | 4.392 | 3.54 | 0.806 | 2.446 | 2.11 | 0.863 |
| CC(C)NC1=NC(=O)C2(CCC2)S1 [Compound 9] | 2.890 | 1.79 | 0.619 | 1.990 | 1.37 | 0.691 |
| CCC1SC(NC23CC4CC(CC(C4)C2)C3)=NC1=O (centres unmarked) [Compound 20] | 4.437 | 3.6 | 0.811 | 2.678 | 2.30 | 0.860 |
| O=C1N=C(NC23CC4CC(CC(C4)C2)C3)SC1c1ccc(Br)cc1 (centres unmarked) [Compound 25, 2-(adamantan-1-ylamino)-5-(4-bromophenyl)thiazol-4(5H)-one] | 5.578 | 5.63 | 1.009 | 3.277 | 3.56 | 1.086 |
| CC(C)(C)NC1=NC(=O)C2(CCCCC2)S1 [Compound 17, 2-(tert-butylamino)-1-thia-3-azaspiro[4.5]dec-2-en-4-one] | 3.904 | 2.86 | 0.732 | 2.477 | 1.89 | 0.762 |
| CC1SC(NC(C)(C)C)=NC1=O (centres unmarked) [Compound 10] | 3.122 | 1.74 | 0.557 | 2.393 | 1.57 | 0.658 |
| CCCC1SC(NC23CC4CC(CC(C4)C2)C3)=NC1=O (centres unmarked) [Compound 21] | 4.859 | 4.08 | 0.840 | 2.564 | 2.33 | 0.909 |
| CC(C)NC1=NC(=O)C(C)(C)S1 [Compound 5] | 3.400 | 1.94 | 0.571 | 1.903 | 1.20 | 0.629 |
| O=C1N=C(NC23CC4CC(CC(C4)C2)C3)SC12CCCCC2 [Compound 26] | 5.192 | 4.49 | 0.865 | 3.520 | 3.09 | 0.879 |
| O=C1CSC(NC23CC4CC(CC(C4)C2)C3)=N1 [Compound 28, 2-(Adamantylamino)thiazol-4(5H)-one] | 3.783 | 2.87 | 0.759 | 2.482 | 2.06 | 0.832 |
| CC(C)C1SC(NC(C)(C)C)=NC1=O (centres unmarked) [Compound 13] | 3.585 | 2.39 | 0.667 | 2.095 | 1.46 | 0.699 |
